Values quoted from earlier work as cited in publication PMC11979273, “A phase I study to evaluate the safety, tolerability, and pharmacokinetics of HEC113995PA·H2O, a novel dual-acting serotonergic antidepressant, in healthy subjects” (Frontiers in Pharmacology, 2025).

Conditions: cited from earlier work

N#Cc1ccc2[nH]cc(CCCCN3CCN(c4ccc5oc(C(N)=O)cc5c4)CC3)c2c1 [Vilazodone]
AUC0-∞ (20 mg dose): 502 ng·h/mL
Cmax (20 mg dose): 28.5 ng/mL
Tmax (peak) (in vivo): 5 h
t1/2 (in vivo): 24.1 h
